{"source": "ChEMBL document CHEMBL3046912", "about": "“Effectiveness of 1,3-dichloropropene as an alternative to methyl bromide in rotations of tomato (Solanum lycopersicum) and cucumber (Cucumis sativus) in China” (2012)", "key": {"Digitaria sanguinalis [1]": {"test_system": "Digitaria sanguinalis", "assay": "Herbicidal activity against Digitaria sanguinalis (hairy crabgrass) in tomato plants fields exposed to 90 L/ha compound fumigation treatment assessed as hand weeding time per plot (reference value: 243.3 hr/ha)", "type": "functional"}, "Cucumis sativus [2]": {"test_system": "Cucumis sativus", "assay": "Increase in plant height of Cucumis sativus (cucumber) exposed to 180 L/ha compound fumigation treatment measured 50 days after compound treatment (reference value: 103.2 cm)", "type": "functional"}, "Solanum lycopersicum [3]": {"test_system": "Solanum lycopersicum", "assay": "Increase in crop yield in Solanum lycopersicum (tomato) plants exposed to 90 L/ha compound fumigation treatment assessed as medium fruit yield (reference value: 32.3 ton/ha)", "type": "functional"}, "Solanum lycopersicum [4]": {"test_system": "Solanum lycopersicum", "assay": "Increase in crop yield in Cucumis sativus (cucumber) plants exposed to 90 L/ha compound fumigation treatment assessed as medium fruit yield (reference value: 38.6 ton/ha)", "type": "functional"}, "Solanum lycopersicum [5]": {"test_system": "Solanum lycopersicum", "assay": "Increase in crop yield in Solanum lycopersicum (tomato) plants exposed to 90 L/ha compound fumigation treatment assessed as large fruit yield (reference value: 15.2 ton/ha)", "type": "functional"}, "Arenaria serpyllifolia [6]": {"test_system": "Arenaria serpyllifolia", "assay": "Herbicidal activity against Arenaria serpyllifolia in cucumber plants fields exposed to 180 L/ha compound fumigation treatment assessed as hand weeding time per plot relative to untreated control", "type": "functional"}, "Solanum lycopersicum [7]": {"test_system": "Solanum lycopersicum", "assay": "Increase in crop yield in Cucumis sativus (cucumber) plants exposed to 90 L/ha compound fumigation treatment assessed as large fruit yield (reference value: 19.5 ton/ha)", "type": "functional"}, "Solanum lycopersicum [8]": {"test_system": "Solanum lycopersicum", "assay": "Increase in crop yield in Cucumis sativus (cucumber) plants exposed to 180 L/ha compound fumigation treatment assessed as medium fruit yield (reference value: 38.6 ton/ha)", "type": "functional"}, "Solanum lycopersicum [9]": {"test_system": "Solanum lycopersicum", "assay": "Increase in crop yield in Cucumis sativus (cucumber) plants exposed to 180 L/ha compound fumigation treatment assessed as extra-large fruit yield (reference value: 7.2 ton/ha)", "type": "functional"}, "Cucumis sativus [10]": {"test_system": "Cucumis sativus", "assay": "Increase in plant height of Cucumis sativus (cucumber) exposed to 90 L/ha compound fumigation treatment measured 50 days after compound treatment (reference value: 103.2 cm)", "type": "functional"}, "Arenaria serpyllifolia [11]": {"test_system": "Arenaria serpyllifolia", "assay": "Herbicidal activity against Arenaria serpyllifolia in cucumber plants fields exposed to 120 L/ha compound fumigation treatment assessed as hand weeding time per plot (reference value: 258.3 hr/ha)", "type": "functional"}, "Digitaria sanguinalis [12]": {"test_system": "Digitaria sanguinalis", "assay": "Herbicidal activity against Digitaria sanguinalis (hairy crabgrass) in cucumber plants fields exposed to 120 L/ha compound fumigation treatment assessed as hand weeding time per plot (reference value: 258.3 hr/ha)", "type": "functional"}, "Capsella bursa-pastoris [13]": {"test_system": "Capsella bursa-pastoris", "assay": "Herbicidal activity against Capsella bursa-pastoris in cucumber plants fields exposed to 90 L/ha compound fumigation treatment assessed as hand weeding time per plot relative to untreated control", "type": "functional"}, "Cucumis sativus [14]": {"test_system": "Cucumis sativus", "assay": "Increase in plant height of Cucumis sativus (cucumber) exposed to 90 L/ha compound fumigation treatment measured 30 days after compound treatment (reference value: 85.6 cm)", "type": "functional"}, "Digitaria sanguinalis [15]": {"test_system": "Digitaria sanguinalis", "assay": "Herbicidal activity against Digitaria sanguinalis (hairy crabgrass) in tomato plants fields exposed to 90 L/ha compound fumigation treatment assessed as hand weeding time per plot relative to untreated control", "type": "functional"}, "Digitaria sanguinalis [16]": {"test_system": "Digitaria sanguinalis", "assay": "Herbicidal activity against Digitaria sanguinalis (hairy crabgrass) in cucumber plants fields exposed to 180 L/ha compound fumigation treatment assessed as hand weeding time per plot relative to untreated control", "type": "functional"}, "Meloidogyne incognita [17]": {"test_system": "Meloidogyne incognita", "assay": "Nematicidal activity against Meloidogyne incognita (root-knot nematode) in tomato growing fields exposed to 120 L/ha compound fumigation treatment assessed as root galling index measured 20 days after compound treatment (reference value: 8.51 root galling index)", "type": "functional"}, "Solanum lycopersicum [18]": {"test_system": "Solanum lycopersicum", "assay": "Increase in crop yield in Solanum lycopersicum (tomato) plants exposed to 180 L/ha compound fumigation treatment assessed as medium fruit yield (reference value: 32.3 ton/ha)", "type": "functional"}, "Solanum lycopersicum [19]": {"test_system": "Solanum lycopersicum", "assay": "Increase in crop yield in Cucumis sativus (cucumber) plants exposed to 120 L/ha compound fumigation treatment assessed as marketable yield fruit yield (reference value: 65.3 ton/ha)", "type": "functional"}, "Cucumis sativus [20]": {"test_system": "Cucumis sativus", "assay": "Increase in plant height of Cucumis sativus (cucumber) exposed to 120 L/ha compound fumigation treatment measured 30 days after compound treatment (reference value: 85.6 cm)", "type": "functional"}, "Solanum lycopersicum [21]": {"test_system": "Solanum lycopersicum", "assay": "Increase in crop yield in Cucumis sativus (cucumber) plants exposed to 180 L/ha compound fumigation treatment assessed as large fruit yield (reference value: 19.5 ton/ha)", "type": "functional"}, "Digitaria sanguinalis [22]": {"test_system": "Digitaria sanguinalis", "assay": "Herbicidal activity against Digitaria sanguinalis (hairy crabgrass) in cucumber plants fields exposed to 180 L/ha compound fumigation treatment assessed as hand weeding time per plot (reference value: 258.3 hr/ha)", "type": "functional"}, "Solanum lycopersicum [23]": {"test_system": "Solanum lycopersicum", "assay": "Increase in plant height of Solanum lycopersicum (tomato) exposed to 120 L/ha compound fumigation treatment measured 50 days after compound treatment (reference value: 86.2 cm)", "type": "functional"}, "Capsella bursa-pastoris [24]": {"test_system": "Capsella bursa-pastoris", "assay": "Herbicidal activity against Capsella bursa-pastoris in cucumber plants fields exposed to 90 L/ha compound fumigation treatment assessed as hand weeding time per plot (reference value: 258.3 hr/ha)", "type": "functional"}, "Capsella bursa-pastoris [25]": {"test_system": "Capsella bursa-pastoris", "assay": "Herbicidal activity against Capsella bursa-pastoris in cucumber plants fields exposed to 180 L/ha compound fumigation treatment assessed as hand weeding time per plot (reference value: 258.3 hr/ha)", "type": "functional"}, "Solanum lycopersicum [26]": {"test_system": "Solanum lycopersicum", "assay": "Increase in crop yield in Solanum lycopersicum (tomato) plants exposed to 120 L/ha compound fumigation treatment assessed as medium fruit yield (reference value: 32.3 ton/ha)", "type": "functional"}, "Solanum lycopersicum [27]": {"test_system": "Solanum lycopersicum", "assay": "Increase in crop yield in Cucumis sativus (cucumber) plants exposed to 120 L/ha compound fumigation treatment assessed as large fruit yield (reference value: 19.5 ton/ha)", "type": "functional"}, "Solanum lycopersicum [28]": {"test_system": "Solanum lycopersicum", "assay": "Increase in crop yield in Cucumis sativus (cucumber) plants exposed to 90 L/ha compound fumigation treatment assessed as extra-large fruit yield (reference value: 7.2 ton/ha)", "type": "functional"}, "Solanum lycopersicum [29]": {"test_system": "Solanum lycopersicum", "assay": "Increase in crop yield in Solanum lycopersicum (tomato) plants exposed to 180 L/ha compound fumigation treatment assessed as marketable yield fruit yield (reference value: 51.3 ton/ha)", "type": "functional"}, "Solanum lycopersicum [30]": {"test_system": "Solanum lycopersicum", "assay": "Increase in crop yield in Solanum lycopersicum (tomato) plants exposed to 180 L/ha compound fumigation treatment assessed as extra-large fruit yield (reference value: 3.8 ton/ha)", "type": "functional"}, "Arenaria serpyllifolia [31]": {"test_system": "Arenaria serpyllifolia", "assay": "Herbicidal activity against Arenaria serpyllifolia in cucumber plants fields exposed to 120 L/ha compound fumigation treatment assessed as hand weeding time per plot relative to untreated control", "type": "functional"}, "Phytophthora melonis": {"test_system": "Phytophthora melonis", "assay": "Fungicidal activity against Phytophthora melonis-induced blight disease in cucumber plants at 120 to 180 L/ha measured 20 to 60 days post compound treatment", "type": "functional, organism-based"}, "Meloidogyne incognita [32]": {"test_system": "Meloidogyne incognita", "assay": "Nematicidal activity against Meloidogyne incognita (root-knot nematode) in cucumber growing fields exposed to 180 L/ha compound fumigation treatment assessed as root galling index measured 20 days after compound treatment (reference value: 8.72 root galling index)", "type": "functional"}, "Digitaria sanguinalis [33]": {"test_system": "Digitaria sanguinalis", "assay": "Herbicidal activity against Digitaria sanguinalis (hairy crabgrass) in cucumber plants fields exposed to 90 L/ha compound fumigation treatment assessed as hand weeding time per plot (reference value: 258.3 hr/ha)", "type": "functional"}, "Capsella bursa-pastoris [34]": {"test_system": "Capsella bursa-pastoris", "assay": "Herbicidal activity against Capsella bursa-pastoris in tomato plants fields exposed to 120 L/ha compound fumigation treatment assessed as hand weeding time per plot (reference value: 243.3 hr/ha)", "type": "functional"}, "Solanum lycopersicum [35]": {"test_system": "Solanum lycopersicum", "assay": "Increase in crop yield in Solanum lycopersicum (tomato) plants exposed to 90 L/ha compound fumigation treatment assessed as extra-large fruit yield (reference value: 3.8 ton/ha)", "type": "functional"}, "Arenaria serpyllifolia [36]": {"test_system": "Arenaria serpyllifolia", "assay": "Herbicidal activity against Arenaria serpyllifolia in tomato plants fields exposed to 180 L/ha compound fumigation treatment assessed as hand weeding time per plot relative to untreated control", "type": "functional"}}, "note": "The source made the active and inactive calls. The calls are words filed in the database; no cut-off is given here.", "data": [{"smiles": "Cl/C=C/CCl", "note": "[1,3-DICHLOROPROPENE]", "values": [{"measurement": "Time", "setting": "Digitaria sanguinalis [1]", "result": 85.6, "unit": "hr/ha"}, {"measurement": "Activity", "setting": "Cucumis sativus [2]", "result": 130.7, "unit": "cm"}, {"measurement": "Crop_yield", "setting": "Solanum lycopersicum [3]", "result": 38.7, "unit": "tons/ha"}, {"measurement": "Crop_yield", "setting": "Solanum lycopersicum [4]", "result": 47.7, "unit": "tons/ha"}, {"measurement": "Crop_yield", "setting": "Solanum lycopersicum [5]", "result": 18.9, "unit": "tons/ha"}, {"measurement": "Activity", "setting": "Arenaria serpyllifolia [6]", "result": 45, "unit": "%"}, {"measurement": "Crop_yield", "setting": "Solanum lycopersicum [7]", "result": 24.8, "unit": "tons/ha"}, {"measurement": "Crop_yield", "setting": "Solanum lycopersicum [8]", "result": 52.3, "unit": "tons/ha"}, {"measurement": "Crop_yield", "setting": "Solanum lycopersicum [9]", "result": 14.8, "unit": "tons/ha"}, {"measurement": "Activity", "setting": "Cucumis sativus [10]", "result": 112.3, "unit": "cm"}, {"measurement": "Time", "setting": "Arenaria serpyllifolia [11]", "result": 74.4, "unit": "hr/ha"}, {"measurement": "Time", "setting": "Digitaria sanguinalis [12]", "result": 74.4, "unit": "hr/ha"}, {"measurement": "Activity", "setting": "Capsella bursa-pastoris [13]", "result": 45, "unit": "%"}, {"measurement": "Activity", "setting": "Cucumis sativus [14]", "result": 92.6, "unit": "cm"}, {"measurement": "Activity", "setting": "Digitaria sanguinalis [15]", "result": 45, "unit": "%"}, {"measurement": "Activity", "setting": "Digitaria sanguinalis [16]", "result": 45, "unit": "%"}, {"measurement": "Root_galling_index", "setting": "Meloidogyne incognita [17]", "result": 2.84}, {"measurement": "Crop_yield", "setting": "Solanum lycopersicum [18]", "result": 45.3, "unit": "tons/ha"}, {"measurement": "Crop_yield", "setting": "Solanum lycopersicum [19]", "result": 89.1, "unit": "tons/ha"}, {"measurement": "Activity", "setting": "Cucumis sativus [20]", "result": 96.8, "unit": "cm"}, {"measurement": "Crop_yield", "setting": "Solanum lycopersicum [21]", "result": 31.7, "unit": "tons/ha"}, {"measurement": "Time", "setting": "Digitaria sanguinalis [22]", "result": 62.3, "unit": "hr/ha"}, {"measurement": "Activity", "setting": "Solanum lycopersicum [23]", "result": 108.6, "unit": "cm"}, {"measurement": "Time", "setting": "Capsella bursa-pastoris [24]", "result": 90.5, "unit": "hr/ha"}, {"measurement": "Time", "setting": "Capsella bursa-pastoris [25]", "result": 62.3, "unit": "hr/ha"}, {"measurement": "Crop_yield", "setting": "Solanum lycopersicum [26]", "result": 42.5, "unit": "tons/ha"}, {"measurement": "Crop_yield", "setting": "Solanum lycopersicum [27]", "result": 27.9, "unit": "tons/ha"}, {"measurement": "Crop_yield", "setting": "Solanum lycopersicum [28]", "result": 11.5, "unit": "tons/ha"}, {"measurement": "Crop_yield", "setting": "Solanum lycopersicum [29]", "result": 76.3, "unit": "tons/ha"}, {"measurement": "Crop_yield", "setting": "Solanum lycopersicum [30]", "result": 8.4, "unit": "tons/ha"}, {"measurement": "Activity", "setting": "Arenaria serpyllifolia [31]", "result": 45, "unit": "%"}, {"measurement": "Activity", "setting": "Phytophthora melonis", "result": "Active"}, {"measurement": "Root_galling_index", "setting": "Meloidogyne incognita [32]", "result": 2.02}, {"measurement": "Time", "setting": "Digitaria sanguinalis [33]", "result": 90.5, "unit": "hr/ha"}, {"measurement": "Time", "setting": "Capsella bursa-pastoris [34]", "result": 66.4, "unit": "hr/ha"}, {"measurement": "Crop_yield", "setting": "Solanum lycopersicum [35]", "result": 4.8, "unit": "tons/ha"}, {"measurement": "Activity", "setting": "Arenaria serpyllifolia [36]", "result": 45, "unit": "%"}]}]}
